Reference: patent US9433607B2, “Composition for prevention or treatment of cancer comprising N-methylenenaphtho[2,1-b]furan-2-carbohydrazide derivatives as an active ingredient” (KOREA RESEARCH INSTITUTE OF BIOSCIENCE AND BIOTECHNOLOGY, priority 2012, dated 2016)

How the values were obtained:
Type in all cases: cell-based
[1] = system: SNU-484; experiment: Anti-proliferative MTT assay, SNU-484; details: 96 h, SNU-484, Stomach, 4 days
Procedure: (§1) Various cancer cell lines (rectal cancer, prostate cancer, breast cancer, lung cancer, stomach cancer, liver cancer, leukemia, brain cancer, and glioma cell lines) were cultured in microtiter plate (1-3×10^3 cells/well), to which ethyl(2-methyl-3{(E)-[(naphtho[2,1-b]furan-2-ylcarbonyl)hydrazono]methyl}-1H-indole-1-yl)acetate was treated. The culture continued for 4 days. Cytotoxicity was investigated by MTT assay by the same manner as described in Example <1-2>. IC50 was calculated by long-dose response curve. The data presents the mean value obtained from the assay performed in triplicate.

[2] = system: Various cancer cell lines; experiment: Anti-proliferative MTT assay, various cancer cell lines (summary); details: 96 h, range over the cell lines, 4 days, read-out: IC50 across cancer cell lines
Procedure: as §1

[3] = system: Hep3B; experiment: Anti-proliferative MTT assay, Hep3B; details: Homo sapiens, 96 h, Liver, 4 days
Procedure: as §1

[4] = system: caspase-3 and PARP; experiment: Immunoblotting of apoptosis related proteins; details: HeLa cells
Procedure: Particularly, HeLa cells were treated with DMSO or ethyl(2-methyl-3{(E)-[(naphtho[2,1-b]furan-2-ylcarbonyl)hydrazono]methyl}-1H-indole-1-yl)acetate for 24 or 48 hours. Then, immunoblotting was performed to investigate the expressions of caspase-3 and PARP, the apoptosis related proteins. PARP (poly(ADP-ribose)polymerase) is one of the downstream cleavage proteins derived from caspase3. Immunoblotting was performed using caspase-3, PARP, and GAPDH specific antibodies.

IC50 [1]: 221 nM | IC50 [2]: 220 to 1060 nM | IC50 [3]: 683 nM
Structure (SMILES): CCOC(=O)Cn1c(C)c(/C=N/NC(=O)c2cc3c(ccc4ccccc43)o2)c2ccccc21 [STK899704]
PARP cleavage ([4]; 48 hours): significantly increased | caspase-3 cleavage ([4]; 48 hours, 0.5 μM): significantly increased | caspase-3 cleavage ([4]; 48 hours, 1 and 5 μM): more significantly increased | caspase-3 cleavage ([4]; within 24 hours): not observed
